Results reported in patent publication US20050059634A1, “Per-6-substituted-per-6-deoxy-cyclodextrins, and use of the same to inhibit soluble beta-amyloid-peptide derived oligomers and to treat alzheimer's and related diseases” (priority 2003, published 2005).

What was measured:
PC12 cells = details: Camilleri et al. 1994; cited from earlier work
Aβ1-42 = target: T1, Aβ1-42 (Homo sapiens, UniProt P05067); assay: ADDLs formation dot-blot assay (Aβ oligomerization); type: biochemical; details: for IC50: purified derivatives, Aβ1-42 10 nM, dot-blot densitometry at 4 hours, read-out: IC50, inhibition of ADDLs formation
T1 construct: an aliquot of Aβ1-42 was dissolved in anhydrous DMSO
T1 sequence (P05067 672-713 limits assumed): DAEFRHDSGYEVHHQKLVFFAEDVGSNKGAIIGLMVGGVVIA
Protocol: Using a high throughput dot blot assay recently developed for measuring Aβ oligomerization (L. Chang et al., J. Neuromol. Chem., 20, 305-313 (2003)), various beta-CD derivatives were evaluated for an ability to inhibit oligomerization of Aβ1-42. beta-CD (1) is a cyclic glucopyranose oligomer (FIG. 1), whose shape is reminiscent of a lamp-shade, frequently depicted schematically as compound 2 in FIG. 1. Actually three different hydroxyls are present in each sugar in the beta-CD molecule, which can be readily differentiated chemically. Additionally, no plane of symmetry exists in the molecule because the cyclic α-1,4-linkage forms a torus. Consequently, the primary hydroxyl groups are not equivalent when substituted. The end result of these structural features is that symmetry operations are not possible with different substitution patterns and each pattern represents a different compound. […]
ADDLs assay The assays were performed as set forth in Wang et al., J. Med. Chem., 47(13), pages 3329-3333 (2003). […] Time-dependent ADDLs formation was monitored by diluting 4 μl of […] Aβ/DMSO solutions with 196 μl of ice-cold F12 medium to 100 nM and 10 nM Aβ, respectively. […] These F12/CD solutions then were used in ADDLs assays, and the oligomer formation monitored as described. […]
ADDLs Western blot/dot blot assays For Western blots, samples were subjected to SDS-PAGE on 16.5% Tris-tricine gels at 100V […] for 1.5 to 2 hours. […] Visualization of proteins with chemiluminescent reagents was recorded by exposure to ECL film (Amersham-Pharmacia).
Dose response curves Dose response curves were prepared by performing the aforementioned dot-blot assays with Aβ1-42 (10 nM) in the presence of purified per-6-substituted-beta-CDs at the indicated concentrations. The response was determined for the dots at 4 hours using Kodak 1D imaging software and reported as log dose response of the ratio of beta-CD to Aβ1-42 as shown in FIG. 5.

OC[C@H]1O[C@@H]2O[C@H]3[C@H](O)[C@@H](O)[C@@H](O[C@H]4[C@H](O)[C@@H](O)[C@@H](O[C@H]5[C@H](O)[C@@H](O)[C@@H](O[C@H]6[C@H](O)[C@@H](O)[C@@H](O[C@H]7[C@H](O)[C@@H](O)[C@@H](O[C@H]8[C@H](O)[C@@H](O)[C@@H](O[C@H]1[C@H](O)[C@H]2O)O[C@@H]8CO)O[C@@H]7CO)O[C@@H]6CO)O[C@@H]5CO)O[C@@H]4CO)O[C@@H]3CO [beta-CD, beta-cyclodextrin]
effect on neurotoxic effects of Aβ1-40 (PC12 cells): substantially diminishes the neurotoxic effects
inhibitory activity in ADDLs formation assay (qualitative) (Aβ1-42; corresponding concentrations, same conditions as the purified derivatives): did not show any detectable inhibitory activity

OC1C2OC(CNCc3ccccc3)C(OC3OC(CNCc4ccccc4)C(OC4OC(CNCc5ccccc5)C(OC5OC(CNCc6ccccc6)C(OC6OC(CNCc7ccccc7)C(OC7OC(CNCc8ccccc8)C(OC8OC(CNCc9ccccc9)C(O2)C(O)C8O)C(O)C7O)C(O)C6O)C(O)C5O)C(O)C4O)C(O)C3O)C1O (stereo not drawn) [5a, per-benzylamino-6-deoxy-beta-CD]
IC50 (Aβ1-42): 460 nM

OC1C2OC(CNCc3ccco3)C(OC3OC(CNCc4ccco4)C(OC4OC(CNCc5ccco5)C(OC5OC(CNCc6ccco6)C(OC6OC(CNCc7ccco7)C(OC7OC(CNCc8ccco8)C(OC8OC(CNCc9ccco9)C(O2)C(O)C8O)C(O)C7O)C(O)C6O)C(O)C5O)C(O)C4O)C(O)C3O)C1O (stereo not drawn) [4a, per-furfurylamino-6-deoxy-beta-CD]
IC50 (Aβ1-42): 540 nM
